Measured values reported in patent US20070270429A1, “Function Inhibitor of Effector Cell” (priority 2003, published 2007).
Read-outs that look alike come from different tables or passages of the source.

What was measured:
human CCR5 = biological target: T1, human CCR5 (Homo sapiens, UniProt P51681); assay: Migration test of human CCR5 expression cell (hCCR5-Ba/F3 cell); assay type: cell-based; details: hCCR5-Ba/F3 cells, 3 hours
T1 construct: expressed in transfected cells
Method: The Ba/F3 cell was statically cultured in a CO2 incubator (temperature: 37° C., CO2 concentration: 5%, humidity: 100%) using RPMI-1640 medium (Gibco BRL) containing an antibiotic preparation (Antibiotic-Antimycotic) (final concentration: penicillin G sodium (100 U/ml), streptomycin sulfate (100 μg/ml), amphotericin B (0.25 μg/ml)) (Gibco BRL), fetal bovine serum (FBS) (10%) and interleukin 3 (IL-3) (5 ng/ml) (Pepro Tech, Inc). For the culturing of an external gene stably over-expressing cell, blasticidin (Kaken Pharmaceutical) was added to the above-described medium to a final concentration of 10 μg/ml.
The plasmid for human CCR5 expression (pEF-BOS-bsr′/hCCR5) was made into linear chain by digesting with AatII. The linear-chained plasmid was purified using QIA Quick PCR Purification Kit (QIAGEN) and then transferred into Ba/F3 cell by electroporation (Gene Pulser (BIO RAD) 960 μF/250 V). The cells were inoculated into a 96 well culture plate at a cell density of 1000, 100 or 10 cells/100 μl/well, and 48 hours thereafter, blasticidin was added thereto to a final concentration of 10 μg/ml to carry out cloning of blasticidin resistant strains, thereby establishing a stable over-expression clone capable of expressing the transferred external gene (hCCR5-Ba/F3 cell).
The test was started by superposing the upper chamber on the lower chamber, and the cells were cultured for 3 hours in a CO2 incubator (5% CO2, humidity 95%) kept at 37° C. Outside bottom moiety of the upper chamber was washed out into the lower chamber using 0.5 ml of a washing buffer (phosphate buffered saline (PBS) containing sodium ethylenediaminetetraacetate (EDTA) (2 mM (and FBS (0.1%)), and the number of cells in the lower chamber was counted using a flow cytometer (Becton Dickinson).
The migration inhibition activity by the compounds of the present invention was calculated as the inhibition ratio (%) in accordance with the following formula, in which the value of well to which the medium containing DMSO but not containing the drug to be tested was added was used as the control value (A), and the value of well to which the DMSO-containing medium containing the drug to be tested was added as the value (B). Inhibition ratio (%)=[(A−B)/A]×100

[1] = system: human CD8-positive memory T cell; assay: Cell growth inhibition test of human CD8-positive memory T cell (anti-CD3 antibody stimulation, BrdU uptake); assay type: cell-based; details: 48 hours
Method: A heparinized blood sample was collected from a human, healthy volunteer, and peripheral blood mononuclear cell (PBMC) was isolated by a density gradient centrifugation. Specifically, a blood sample (33 ml) 2-fold diluted with physiological saline was overlaid on a medium for hemocyte separation use (10 ml) having a specific gravity of 1.077±0.001 g/ml contained in a centrifugation tube (LymphoPrep tube (Nycomed Pharma)) and centrifuged (3000×g, 10 minutes) at room temperature. The layer containing PBMC was recovered and washed twice with PBS to isolate PBMC.
CD8-positive T cell was isolated from PBMC by a negative selection method using Human T Cell CD8 Subset Column Kit (R & D Systems, Inc). Specifically, the cells to be removed such as B cell, CD4-positive T cell, and monocyte were labeled with antibodies by adding an antibody cocktail (1 ml) (attached to the kit) to PBMC (up to 2×10^8 cells) and incubating at room temperature for 15 minutes. The cells were washed twice with a column buffer (10 ml) (attached to the kit) and suspended in said column buffer (2 ml). The cell suspension was added to Human T Cell Subset Enrichment Column (attached to the kit) which had been equilibrated in advance using the column buffer (10 ml). By eluting with the column buffer (10 ml) after incubation at room temperature for 10 minutes, the CD8-positive T cell was obtained.
CD8-positive naive T cell and CD8-positive memory T cell were obtained by fractionating the CD8-positive T cell obtained by the above-described method using VarioMACS (Miltenyl Biotec). Specifically, a marker of naive T cell, CD45RA antigen, was labeled with antibody magnetic beads by adding 20 μl of CD45RA MicroBeads (Miltenyl Biotec) to 1×10^7 cells of the CD8-positive T cell, mixing them and incubating at 6 to 12° C. for 15 minutes. The cells were washed once with MACS buffer (PBS containing 2 mM EDTA and 0.5% bovine serum albumin (BSA)) (20 ml) (attached to the kit) and re-suspended in MACS buffer (0.5 ml). The cell suspension was added to an MS column (Miltenyl Biotec) which had been set to VarioMACS and equilibrated with MACS buffer (0.5 ml) in advance, and further washed with MACS buffer (0.5 ml×3 times). This washing solutions were recovered and used in the following test as the CD45RA-negative cell, namely CD8-positive memory T cell. Also, since the CD45RA-positive cell can be recovered by taking off the MS column from VarioMACS and eluting it with MACS buffer (1.5 ml), this was used in the following test as the CD8-positive naive T cell.
The cells fractionated by the method described in the above-described (2-1) were inoculated into a 96 well plate coated with an anti-human CD3 antibody, at a cell density of 2×10^5 cells/200 μl/well. The anti-human CD3 antibody-coated 96 well plate used herein was prepared by coating it with an anti-human CD3 antibody OKT-3 (0.1 μg/ml) overnight at 4° C. The cells were cultured for 48 hours in a CO2 incubator (5% CO2, humidity 95%) kept at 37° C. The cell growth was measured using Cell Proliferation ELISA, BrdU (Colorimetric) (Roche), using uptake of 5-bromo-2-deoxyuridine (BrdU) as the index. The operation method is shown below.
After treating the cells with BrdU for a predetermined period of time, the plate was centrifuged (300×g, 10 minutes), and then turned upside down and lightly shaken to remove the labeled medium. The plate was dried (for about 15 minutes) using a hair dryer. A cell fixing and DNA denaturing solution (200 μl, attached to the kit) was added to each well and left alone for 30 minutes. After removing the cell fixing and DNA denaturing solution and further removing water, a peroxidase-labeled anti-BrdU antibody (anti-BrdU-POD reaction solution) (100 μl) (attached to the kit) was added thereto and left alone at room temperature for 90 minutes. […]

[2] = MIP-1α 3 nM in lower chamber, read-out: IC50 (nM), migration inhibition, chemokine MIP-1α
[3] = MIP-1β 3 nM in lower chamber, read-out: IC50 (nM), migration inhibition, chemokine MIP-1β
[4] = RANTES 3 nM in lower chamber, read-out: IC50 (nM), migration inhibition, chemokine RANTES

T1 sequence (P51681 whole entry): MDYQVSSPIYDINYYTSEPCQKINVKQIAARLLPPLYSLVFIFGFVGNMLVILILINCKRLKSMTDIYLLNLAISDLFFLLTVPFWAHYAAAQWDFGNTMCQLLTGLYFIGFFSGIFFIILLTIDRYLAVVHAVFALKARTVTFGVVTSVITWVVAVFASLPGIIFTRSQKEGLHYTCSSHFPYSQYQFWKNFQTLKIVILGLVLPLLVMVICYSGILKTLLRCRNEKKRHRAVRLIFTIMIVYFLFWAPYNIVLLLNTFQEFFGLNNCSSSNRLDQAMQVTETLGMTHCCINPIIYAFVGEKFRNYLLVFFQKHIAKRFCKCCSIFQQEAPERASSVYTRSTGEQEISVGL

CCCCN1C(=O)[C@@H]([C@H](O)C2CCCCC2)NC(=O)C12CCN(Cc1ccc(Cc3ccc(C(=O)O)cc3OC)cc1)CC2 [Compound (b), 4-[4-({(3R)-1-butyl-3-[(R)-cyclohexyl(hydroxy)methyl]-2,5-dioxo-1,4,9-triazaspiro[5.5]undec-9-yl}methyl)benzyl]-3-methoxybenzoic acid]
IC50 (human CCR5; [2]): 9.8 nM
IC50 (human CCR5; [3]): 11.1 nM
IC50 (human CCR5; [4]): 12.4 nM
inhibition ratio of cell growth ([1]; 0.01 μM): −10.6%
inhibition ratio of cell growth ([1]; 0.1 μM): 5.6%
inhibition ratio of cell growth ([1]; 1 μM): 18.3%
inhibition ratio of cell growth ([1]; 10 μM): 53.6%

CCCCN1C(=O)[C@@H]([C@H](O)C2CCCCC2)NC(=O)C12CCN(Cc1ccc(Oc3ccc(C(=O)O)cc3OCC)cc1)CC2.Cl [Compound (c), 4-[4-({(3R)-1-butyl-3-[(R)-cyclohexyl(hydroxy)methyl]-2,5-dioxo-1,4,9-triazaspiro[5.5]undec-9-yl}methyl)phenoxy]-3-ethoxybenzoic acid hydrochloride]
IC50 (human CCR5; [2]): 17.3 nM
IC50 (human CCR5; [3]): 18.4 nM
IC50 (human CCR5; [4]): 22.5 nM
inhibition ratio of cell growth ([1]; 0.01 μM): 9.2%
inhibition ratio of cell growth ([1]; 0.1 μM): 13.4%
inhibition ratio of cell growth ([1]; 1 μM): 18.8%
inhibition ratio of cell growth ([1]; 10 μM): 39.6%
